Data reported in US4902720A (priority 1988, dated 1990).
Where two headings read alike, the source gives them in different places.

Experiments:
HSV-1 (F strain) [1] = settings: for % plaque inhibition B: Exp. 1D
HSV-2 = tested on: HSV-2
Protocol: Female guinea pigs (obtained from Charles River, Inc.) weighing approximately 200 g were used as a model for HSV-2 skin lesions. The animals were anesthetized with 0.15 ml of Ketamine-Rompum mixture. The animals were first shaved on their back with a hair clipper and then treated with a depilatory cream (Nair). The denuded area was washed well and then dried. A tuberculin tyne was washed with ethanol and air dried.
Two methods were tried for infecting the animals with the virus. In one, a drop of HSV-2 suspension was placed on the skin and the skin was punctured with the tyne. In the second method, the tyne was dipped in the virus suspension before puncturing the skin.
In the first experiment, each of 3 guinea pigs was infected on three areas of their backs. At 3 days post infection, treatment was begun on one side of each animal, leaving the other side untreated as a control.
The animals were examined daily for vesicles (V), crust (C) and for erythema (R) alone.
In the next experiment, 6 guinea pigs were infected in the same manner as the initial 3 guinea pigs. Treatment was begun 12-16 hours post infection. […] Lesions showing an erythematous base with either a blister or a crust on top were considered to be HSV specific. […] Both the control animals and treated animals were carefully read in the same manner.

HSV-2 (333 strain) = settings: for % plaque inhibition: 2 hours pre-incubation
Protocol: In Series No. 1 of Example No. 1, monolayer cultures of Vero, RK-13 (rabbit kidney), and WISH (human amnion, Hayflick) cells were used in the experiments of Example No. 1. The cells were grown in Basal Minimal Eagle's Media supplemented with 5% fetal calf serum, 1% glutamine, sodium bicarbote and antibiotics. Cultures were maintained in a maintenance media that was the same media, except that the maintenance media contained 2% fetal calf serum. An F Strain of HSV-1 was chosen because it is a well-known prototype of HSV-1. This F Strain can be obtained from the American Type Culture Collection (ATCC), 12301 Parklawn Drive, Rockville, MD 20852, at which it is identified as ATC-VR 733. For studies with HSV-2, a G strain of HSV-2 (ATCC-VR 734) and a 333 strain of HSV-2 were selected. These strains also can be obtained from the ATCC.
Two methods were used to test the drug's effectiveness in the suppression of viral growth. In the pre-inoculation experiments, the drug was added after adsorption of the virus. In the pre-incubation experiments, the drug was added prior to infection of the cell cultures.
Accordingly, the pre-inoculation experiments measured the effect of the drug on a cell that was already infected with the virus. The pre-incubation experiments measured the cell cultures that were treated with the drug prior to the inoculation to determine if these cells then would be permissive or non-permissive to the tested virus. In these experiments, plaque reduction assays provided a quantitative measure of antiviral activity and was deemed to be reliable and objective.
In the pre-incubation experiments, the media was either decanted or gently aspirated from the cultures. After decanting or aspirating, 1 ml of the drug dilution plus maintenance media was added to the cultures. The cultures that served as virus controls or cell controls received 2 ml of maintenance media. After the pre-treatment period, the media was again aspirated and the cell cultures were infected with the virus.
When this occurred, the cultures were fixed and stained with crystal violet. The plaque were then carefully counted under the microscope. By such a counting and careful comparison, percentages of plaque inhibition in the treated cultures were then calculated.
The 333 strain, which can be obtained from ATCC, was used.

[2] = tested on: herpes simplex virus (HSV types 1 and 2)
HSV-1 (F strain) [3] = settings: for % plaque inhibition: drug added after inoculation; for appearance of cell layer / % plaque inhibition A: Exp. 1D; for appearance of cell layer: after virus adsorption, thin = attached but monolayer not confluent; for % plaque inhibition A: drug added after virus adsorption

SMILES: CC[N+](CC)(CC)CC.[Cl-] [TEAC, tetraethylammonium chloride]
- % plaque inhibition (HSV-1 (F strain) [1]; Exp. 1C, 3 hours pre-incubation, 2.5 mg/culture): 10%
- % plaque inhibition (HSV-1 (F strain) [1]; Exp. 1C, 3 hours pre-incubation, 5.0 mg/culture): 22%
- % plaque inhibition (HSV-1 (F strain) [1]; Exp. 1C, 3 hours pre-incubation, 10.0 mg/culture): 71%
- % plaque inhibition B (HSV-1 (F strain) [1]; 3 hours pre-incubation, 12.5 mg/culture): 80%
- % plaque inhibition B (HSV-1 (F strain) [1]; 3 hours pre-incubation, 25.0 mg/culture): 79%
- % plaque inhibition B (HSV-1 (F strain) [1]; 3 hours pre-incubation, 50.0 mg/culture): 82%
- % plaque inhibition B (HSV-1 (F strain) [1]; 3 hours pre-incubation, 100.0 mg/culture): 79%
- % plaque inhibition (HSV-1 (F strain) [1]; Exp. 1E, 2 hours pre-incubation, 6.25 mg/culture): 0%
- % plaque inhibition (HSV-1 (F strain) [1]; Exp. 1E, 2 hours pre-incubation, 12.50 mg/culture): 18%
- % plaque inhibition (HSV-1 (F strain) [1]; Exp. 1E, 2 hours pre-incubation, 25.00 mg/culture): 17%
- % plaque inhibition (HSV-1 (F strain) [1]; Exp. 1E, 2 hours pre-incubation, 50.00 mg/culture): 24%
- % plaque inhibition (HSV-1 (F strain) [1]; Exp. 1E, 2 hours pre-incubation, 100.00 mg/culture): 68%
- % plaque inhibition (HSV-1 (F strain) [1]; Exp. 1E, 4 hours pre-incubation, 6.25 mg/culture): less than 20%
- % plaque inhibition (HSV-1 (F strain) [1]; Exp. 1E, 4 hours pre-incubation, 12.50 mg/culture): less than 20%
- % plaque inhibition (HSV-1 (F strain) [1]; Exp. 1E, 4 hours pre-incubation, 25.00 mg/culture): 37.5%
- % plaque inhibition (HSV-1 (F strain) [1]; Exp. 1E, 4 hours pre-incubation, 50.00 mg/culture): 63%
- appearance of cell layer (HSV-1 (F strain) [1]; Exp. 1E, 4 hours pre-incubation, 100.00 mg/culture): thin
- % plaque inhibition (HSV-1 (F strain) [1]; Exp. 1E, 4 hours pre-incubation, 100.00 mg/culture, cell layer thin): 100%
- % plaque inhibition (HSV-1 (F strain) [1]; Exp. 1E, 7 hours pre-incubation, 6.25 mg/culture): 50%
- % plaque inhibition (HSV-1 (F strain) [1]; Exp. 1E, 7 hours pre-incubation, 12.50 mg/culture): 76%
- % plaque inhibition (HSV-1 (F strain) [1]; Exp. 1E, 7 hours pre-incubation, 25.00 mg/culture): 96.5%
- % plaque inhibition (HSV-1 (F strain) [1]; Exp. 1E, 7 hours pre-incubation, 50.00 mg/culture): 95.7%
- appearance of cell layer (HSV-1 (F strain) [1]; Exp. 1E, 7 hours pre-incubation, 100.00 mg/culture): thin
- % plaque inhibition (HSV-1 (F strain) [1]; Exp. 1E, 7 hours pre-incubation, 100.00 mg/culture, cell layer thin): 100%
- number and size of lesions (HSV-2; TEAC from 12-16 hours P.I.): significant reduction in the number of lesions, but also in their size
- rupture and crusting of lesions (HSV-2; TEAC from 12-16 hours P.I.): the lesions neither ruptured nor crusted
- number and appearance of lesions, treated vs control (HSV-2; TEAC ointment from 12-16 hours P.I.): marked difference between the two groups, not only in the number of lesions but also in their appearance
- Percent Reduction of lesions (HSV-2; TEAC ointment from 12-16 hours P.I., day 3 P.I.): 21.0%
- # of lesions (HSV-2; TEAC ointment from 12-16 hours P.I., day 3 P.I., control 19): 15 lesions
- Percent Reduction of lesions (HSV-2; TEAC ointment from 12-16 hours P.I., day 4 P.I.): 27.5%
- # of lesions (HSV-2; TEAC ointment from 12-16 hours P.I., day 4 P.I., control 40): 29 lesions
- Percent Reduction of lesions (HSV-2; TEAC ointment from 12-16 hours P.I., day 5 P.I.): 58.5%
- # of lesions (HSV-2; TEAC ointment from 12-16 hours P.I., day 5 P.I., control 41): 17 lesions
- Percent Reduction of lesions (HSV-2; TEAC ointment from 12-16 hours P.I., day 6 P.I.): 58.3%
- # of lesions (HSV-2; TEAC ointment from 12-16 hours P.I., day 6 P.I., control 36): 15 lesions
- dermatitis (rash) (HSV-2; day 4 after treatment, TEAC or its vehicle or both): a rash appeared
- % plaque inhibition (HSV-2 (333 strain); 6.25 mg/culture): 0%
- % plaque inhibition (HSV-2 (333 strain); 12.50 mg/culture): 25%
- % plaque inhibition (HSV-2 (333 strain); 25.00 mg/culture): 42%
- % plaque inhibition (HSV-2 (333 strain); 50.00 mg/culture): 56%
- sensitivity of HSV-2 (333 strain) to TEAC vs HSV-1 (HSV-2 (333 strain); based on Table 6): even more sensitive to TEAC than HSV-1
- change in the morphology of the cells (Vero and WISH cells; 5 mg, 2.5 mg and 1.25 mg TEAC per culture, overnight): No change in the morphology of the cells
- growth or general appearance vs untreated controls (Vero and WISH cells; after wash, additional 24 hours in fresh medium): no apparent difference in the growth or general appearance
- attacks ([2]; Patient B, about a month after report on fourth infusion): no more attacks
- recurrences ([2]; Patient B, after third infusion): recurrences were not eliminated
- resolution of oral lesions ([2]; Patient B, first infusion 3.7 cc (5 mg/kg)): resolution occurring in a shorter than usual time
- value of last treatment ([2]; Patient B, fourth infusion 4.8 cc): of no value
- aura and expected labial lesion ([2]; Patient B, second infusion 3.7 cc, following day): absence of an aura and no occurrence of the expected lesion except for a very small lesion at the corner of the mouth
- time to disappearance of penile lesion ([2]; Patient B, third infusion 4.5 cc): 2 to 3 days
- long term outcome ([2]; Patient C, five months and ten months after initial treatment): no further problems
- infection ([2]; Patient I, first infusion 4.7 cc, four to five days later): they were all clear
- time to clearing of lesion ([2]; Patient I, second infusion 4.75 cc (5.5 mg/kg)): 3 days
- nocturnal headaches ([2]; Patient I, three months after second infusion): no further nocturnal headaches
- antiviral activity (HSV-1 (F strain) [3]; Exp. 1C, all dilutions tested): Antiviral activity was seen in all dilutions tested
- % plaque inhibition (HSV-1 (F strain) [3]; Exp. 1C, 0.62 mg/culture): 30%
- % plaque inhibition (HSV-1 (F strain) [3]; Exp. 1C, 1.25 mg/culture): 39%
- % plaque inhibition (HSV-1 (F strain) [3]; Exp. 1C, 2.50 mg/culture): 46%
- % plaque inhibition (HSV-1 (F strain) [3]; Exp. 1C, 5.00 mg/culture): 45%
- % plaque inhibition (HSV-1 (F strain) [3]; Exp. 1C, 10.00 mg/culture): 56%
- appearance of cell layer (HSV-1 (F strain) [3]; 25 mg/culture): thin
- appearance of cell layer (HSV-1 (F strain) [3]; 50 mg/culture): thin
- % plaque inhibition A (HSV-1 (F strain) [3]; 6.2 mg/culture): 20%
- % plaque inhibition A (HSV-1 (F strain) [3]; 12.5 mg/culture): 62%
- % plaque inhibition A (HSV-1 (F strain) [3]; 25.0 mg/culture, cell layer thin): 100%
- % plaque inhibition A (HSV-1 (F strain) [3]; 50.0 mg/culture, cell layer thin): 100%
